Laboratory results published in publication PMC12250785, “Synthesis of Novel 7-Phenyl-2,3-Dihydropyrrolo[2,1-b]Quinazolin-9(1H)-ones as Cholinesterase Inhibitors Targeting Alzheimer’s Disease Through Suzuki–Miyaura Cross-Coupling Reaction” (Molecules, 2025).

Legend:
[1] = target: AChE (E.C. 3.1.1.7) (Electrophorus electricus, UniProt O42275); experiment: biochemical; conditions: for IC50: AChE from electric eel, Ellman method, means ± SD of triplicate independent experiments; for Selectivity (BChE/AChE): BChE IC50/AChE IC50
Experimental: The results are presented as IC50 values.
The total volume of the reaction was 200 μL, consisting of 2 μL of sample, 138 μL of Tris-HCl buffer solution containing acetylcholinesterase (final concentration of 0.03 U/mL), and a control consisting of Tris-HCl buffer solution without the enzyme. The reaction was incubated at room temperature for 10 min. Following this, 20 μL of […] (5 mM) was added, and the reaction was conducted at 37 °C for an additional 10 min.

[2] = target: BChE (E.C. 3.1.1.8) (Equus caballus, UniProt P81908); experiment: biochemical; conditions: BChE from horse serum; Ellman method; means ± SD of triplicate independent experiments
[3] = Solubility in common organic solvents; assay type: physicochemical

Chain of AChE (E.C. 3.1.1.7) (O42275 24-633): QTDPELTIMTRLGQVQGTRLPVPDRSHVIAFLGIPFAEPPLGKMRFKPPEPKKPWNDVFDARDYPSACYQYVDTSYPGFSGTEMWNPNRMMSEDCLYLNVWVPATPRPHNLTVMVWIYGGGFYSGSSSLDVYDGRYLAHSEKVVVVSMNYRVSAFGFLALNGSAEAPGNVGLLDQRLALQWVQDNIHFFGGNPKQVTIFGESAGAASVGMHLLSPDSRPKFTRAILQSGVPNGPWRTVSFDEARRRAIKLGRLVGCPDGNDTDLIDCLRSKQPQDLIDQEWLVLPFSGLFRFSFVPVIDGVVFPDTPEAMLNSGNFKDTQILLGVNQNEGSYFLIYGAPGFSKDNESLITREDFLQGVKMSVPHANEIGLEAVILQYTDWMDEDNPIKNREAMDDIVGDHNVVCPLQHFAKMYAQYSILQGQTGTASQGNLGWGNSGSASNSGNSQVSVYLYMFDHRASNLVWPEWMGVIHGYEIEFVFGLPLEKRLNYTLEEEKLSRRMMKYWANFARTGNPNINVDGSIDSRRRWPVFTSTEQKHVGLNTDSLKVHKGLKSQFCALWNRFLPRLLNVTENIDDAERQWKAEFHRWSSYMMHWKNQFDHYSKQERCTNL
Chain of BChE (E.C. 3.1.1.8) (P81908 whole entry): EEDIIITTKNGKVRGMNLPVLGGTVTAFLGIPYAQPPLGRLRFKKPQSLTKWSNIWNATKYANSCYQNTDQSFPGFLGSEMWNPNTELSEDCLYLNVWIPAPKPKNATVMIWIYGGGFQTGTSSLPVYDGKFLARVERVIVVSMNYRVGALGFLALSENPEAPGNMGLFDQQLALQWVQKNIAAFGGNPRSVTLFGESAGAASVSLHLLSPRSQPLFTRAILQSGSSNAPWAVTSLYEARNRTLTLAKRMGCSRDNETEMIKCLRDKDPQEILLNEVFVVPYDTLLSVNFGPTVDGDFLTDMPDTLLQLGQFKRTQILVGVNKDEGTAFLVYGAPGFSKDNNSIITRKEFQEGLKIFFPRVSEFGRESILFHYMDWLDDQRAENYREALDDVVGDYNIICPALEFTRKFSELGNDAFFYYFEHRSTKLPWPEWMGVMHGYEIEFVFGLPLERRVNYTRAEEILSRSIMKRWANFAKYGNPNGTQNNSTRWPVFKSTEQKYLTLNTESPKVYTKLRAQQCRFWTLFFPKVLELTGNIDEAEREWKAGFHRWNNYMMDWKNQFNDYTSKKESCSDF

O=c1c2cc(-c3ccc(C(F)(F)F)cc3)ccc2nc2n1CCCC2 [4c, 2-(4-(Trifluoromethyl)phenyl)-6,7,8,9-tetrahydro-11H-pyrido[2,1-b]quinazolin-11-one]
IC50 [1]: > 50 µM
IC50 [2]: > 50 µM

CC(=O)c1cccc(-c2ccc3nc4n(c(=O)c3c2)CCCC4)c1 [4i, 2-(3-Acetylphenyl)-6,7,8,9-tetrahydro-11H-pyrido[2,1-b]quinazolin-11-one]
IC50 [1]: 11.1 ± 0.73 µM
IC50 [2]: > 50 µM

CC(=O)c1cccc(-c2ccc3nc4n(c(=O)c3c2)CCC4)c1 [3i, 7-(3-Acetylphenyl)-2,3-dihydropyrrolo[2,1-b]quinazolin-9(1H)-one]
IC50 [1]: 33.2 ± 1.01 µM
IC50 [2]: > 50 µM

COc1ccc(-c2ccc3nc4n(c(=O)c3c2)CCC4)cc1 [3d, 7-(4-Methoxyphenyl)-2,3-dihydropyrrolo[2,1-b]quinazolin-9(1H)-one]
IC50 [1]: 16.2 ± 0.39 µM
IC50 [2]: > 50 µM

O=c1c2cc(-c3ccc(F)cc3)ccc2nc2n1CCC2 [3b, 7-(4-Fluorophenyl)-2,3-dihydropyrrolo[2,1-b]quinazolin-9(1H)-one]
IC50 [1]: 34.8 ± 1.21 µM
Selectivity (BChE/AChE) [1]: 0.5
IC50 [2]: 15.5 ± 0.41 µM

O=c1c2cc(-c3cccc(Cl)c3)ccc2nc2n1CCCC2 [4g, 2-(3-Chlorophenyl)-6,7,8,9-tetrahydro-11H-pyrido[2,1-b]quinazolin-11-one]
IC50 [1]: 21.3 ± 0.88 µM
Selectivity (BChE/AChE) [1]: 1.1
IC50 [2]: 22.9 ± 0.76 µM

O=c1c2cc(-c3cccc4ccccc34)ccc2nc2n1CCCC2 [4m, 2-(Naphthalen-1-yl)-6,7,8,9-tetrahydro-11H-pyrido[2,1-b]quinazolin-11-one]
IC50 [1]: > 50 µM
IC50 [2]: > 50 µM

O=c1c2cc(-c3ccccc3C(F)(F)F)ccc2nc2n1CCCC2 [4n, 2-(2-(Trifluoromethyl)phenyl)-6,7,8,9-tetrahydro-11H-pyrido[2,1-b]quinazolin-11-one]
IC50 [1]: > 50 µM
IC50 [2]: 43.2 ± 1.27 µM

COc1ccc(-c2ccc3nc4n(c(=O)c3c2)CCCC4)cc1 [4d, 2-(4-Methoxyphenyl)-6,7,8,9-tetrahydro-11H-pyrido[2,1-b]quinazolin-11-one]
IC50 [1]: 33.2 ± 1.08 µM
IC50 [2]: > 50 µM

CC(C)(C)c1ccc(-c2ccc3nc4n(c(=O)c3c2)CCCC4)cc1 [4e, 2-(4-(tert-Butyl)phenyl)-6,7,8,9-tetrahydro-11H-pyrido[2,1-b]quinazolin-11-one]
IC50 [1]: > 50 µM
IC50 [2]: > 50 µM

O=c1c2cc(-c3ccc(Cl)cc3)ccc2nc2n1CCC2 [3a, 7-(4-Chlorophenyl)-2,3-dihydropyrrolo[2,1-b]quinazolin-9(1H)-one]
IC50 [1]: > 50 µM
IC50 [2]: > 50 µM

Cc1ccccc1-c1ccc2nc3n(c(=O)c2c1)CCCC3 [4j, 2-(o-Tolyl)-6,7,8,9-tetrahydro-11H-pyrido[2,1-b]quinazolin-11-one]
IC50 [1]: > 50 µM
IC50 [2]: > 50 µM

COc1cccc(-c2ccc3nc4n(c(=O)c3c2)CCC4)c1 [3h, 7-(3-Methoxyphenyl)-2,3-dihydropyrrolo[2,1-b]quinazolin-9(1H)-one]
IC50 [1]: 17.7 ± 0.84 µM
Selectivity (BChE/AChE) [1]: 2.4
IC50 [2]: 41.8 ± 1.28 µM

COc1ccc(Cl)cc1-c1ccc2nc3n(c(=O)c2c1)CCC3 [3l, 7-(5-Chloro-2-methoxyphenyl)-2,3-dihydropyrrolo[2,1-b]quinazolin-9(1H)-one]
IC50 [1]: 14.7 ± 0.48 µM
Selectivity (BChE/AChE) [1]: 2.0
IC50 [2]: 28.5 ± 0.46 µM

CC(C)(C)c1ccc(-c2ccc3nc4n(c(=O)c3c2)CCC4)cc1 [3e, 7-(4-(tert-Butyl)phenyl)-2,3-dihydropyrrolo[2,1-b]quinazolin-9(1H)-one]
IC50 [1]: > 50 µM
IC50 [2]: > 50 µM

COc1cccc(-c2ccc3nc4n(c(=O)c3c2)CCCC4)c1 [4h, 2-(3-Methoxyphenyl)-6,7,8,9-tetrahydro-11H-pyrido[2,1-b]quinazolin-11-one]
IC50 [1]: 42.7 ± 1.8 µM
Selectivity (BChE/AChE) [1]: 1
IC50 [2]: 42.3 ± 1.23 µM

O=c1c2cc(-c3cccc4ccccc34)ccc2nc2n1CCC2 [3m, 7-(Naphthalen-1-yl)-2,3-dihydropyrrolo[2,1-b]quinazolin-9(1H)-one]
IC50 [1]: > 50 µM
IC50 [2]: 32 ± 0.72 µM

Cc1ccccc1-c1ccc2nc3n(c(=O)c2c1)CCC3 [3j, 7-(o-Tolyl)-2,3-dihydropyrrolo[2,1-b]quinazolin-9(1H)-one]
IC50 [1]: > 50 µM
IC50 [2]: 11.1 ± 0.37 µM

O=c1c2cc(-c3ccccc3)ccc2nc2n1CCC2 [3n, 7-Phenyl-2,3-dihydropyrrolo[2,1-b]quinazolin-9(1H)-one]
IC50 [1]: 35.9 ± 1.03 µM
Selectivity (BChE/AChE) [1]: 0.64
IC50 [2]: 22.9 ± 0.57 µM

O=c1c2cc(-c3ccc(F)c(Cl)c3)ccc2nc2n1CCC2 [3k, 7-(3-Chloro-4-fluorophenyl)-2,3-dihydropyrrolo[2,1-b]quinazolin-9(1H)-one]
IC50 [1]: 6.08 ± 0.26 µM
Selectivity (BChE/AChE) [1]: 4.8
IC50 [2]: 29 ± 0.74 µM

Cc1cccc(-c2ccc3nc4n(c(=O)c3c2)CCC4)c1 [3f, 7-(m-Tolyl)-2,3-dihydropyrrolo[2,1-b]quinazolin-9(1H)-one]
IC50 [1]: 28.7 ± 0.69 µM
Selectivity (BChE/AChE) [1]: 0.8
IC50 [2]: 22.8 ± 0.49 µM

O=c1c2cc(-c3cccc(Cl)c3)ccc2nc2n1CCC2 [3g, 7-(3-Chlorophenyl)-2,3-dihydropyrrolo[2,1-b]quinazolin-9(1H)-one]
IC50 [1]: 27.9 ± 0.72 µM
Selectivity (BChE/AChE) [1]: 0.8
IC50 [2]: 22.2 ± 0.48 µM

O=c1c2cc(-c3ccc(F)c(Cl)c3)ccc2nc2n1CCCC2 [4k, 2-(3-Chloro-4-fluorophenyl)-6,7,8,9-tetrahydro-11H-pyrido[2,1-b]quinazolin-11-one]
IC50 [1]: > 50 µM
IC50 [2]: > 50 µM

O=c1c2cc(-c3ccc(Cl)cc3)ccc2nc2n1CCCC2 [4a, 2-(4-Chlorophenyl)-6,7,8,9-tetrahydro-11H-pyrido[2,1-b]quinazolin-11-one]
IC50 [1]: > 50 µM
IC50 [2]: > 50 µM

Cc1cccc(-c2ccc3nc4n(c(=O)c3c2)CCCC4)c1 [4f, 2-(m-Tolyl)-6,7,8,9-tetrahydro-11H-pyrido[2,1-b]quinazolin-11-one]
IC50 [1]: 6.39 ± 0.31 µM
Selectivity (BChE/AChE) [1]: 1.7
solubility in common organic solvents [3]: poor solubility
IC50 [2]: 10.7 ± 0.64 µM

O=c1c2cc(-c3ccc(F)cc3)ccc2nc2n1CCCC2 [4b, 2-(4-Fluorophenyl)-6,7,8,9-tetrahydro-11H-pyrido[2,1-b]quinazolin-11-one]
IC50 [1]: 34.6 ± 1.27 µM
IC50 [2]: > 50 µM

COc1ccc(Cl)cc1-c1ccc2nc3n(c(=O)c2c1)CCCC3 [4l, 2-(5-Chloro-2-methoxyphenyl)-6,7,8,9-tetrahydro-11H-pyrido[2,1-b]quinazolin-11-one]
IC50 [1]: > 50 µM
IC50 [2]: 46.6 ± 1.45 µM

O=c1c2cc(-c3ccc(C(F)(F)F)cc3)ccc2nc2n1CCC2 [3c, 7-(4-(Trifluoromethyl)phenyl)-2,3-dihydropyrrolo[2,1-b]quinazolin-9(1H)-one]
IC50 [1]: > 50 µM
IC50 [2]: > 50 µM
